Our source for the AC50 and IC50 values is patent US20240226098A1, “COMPOUNDS AND METHODS FOR MODULATING SPLICING” (REMIX THERAPEUTICS INC., priority 2020, published 2024).

Counter-ions that a name gives are not always drawn.

Holding throughout (assay type): cell-based
Experiment [1] relates to HTT mRNA, alternative junction (AJ). The experiment in a line: Splicing assay (RT-qPCR): increase in HTT alternative junction (AJ) mRNA. The conditions noted are these: A673 or K562 cell line, 24 hours treatment, top dose 10 uM; concentration having 50% response in AJ increase. The procedure: (§1) Compounds described herein were used to modulate RNA transcript abundance in cells. The expression of a target mRNA was measured by detecting the formation of an exon-exon junction in the canonical transcript (CJ). A compound mediated exon-inclusion event was detected by observing an increase in formation of a new junction with an alternative exon (AJ). Real-time qPCR assays were used to detect these splicing switches and interrogate the potency of various compounds towards different target genes. A high-throughput real time quantitative PCR (RT-qPCR) assay was developed to measure these two isoforms of the mRNA (CJ and AJ) for an exemplary gene, HTT, together with a control housekeeping gene, GAPDH or GUSB or PPIA, used for normalization. Briefly, the A673 or K562 cell line was treated with various compounds described herein (e.g., compounds of Formula (I)). After treatment, the levels of the HTT mRNA targets were determined from each sample of cell lysate by cDNA synthesis followed by qPCR.
(§2) • Cells-to-CT 1-step kit: ThermoFisher A25602, Cells-to-CT lysis reagent: ThermoFisher 4391851C, TaqMan™ Fast Virus 1-Step Master Mix: ThermoFisher 4444436 • GAPDH: VIC-PL, ThermoFisher 4326317E (Assay: Hs99999905_ml)—used for K562/suspension cell lines • GUSB: VIC-PL, ThermoFisher 4326320E (Assay: Hs99999908_ml)—used for K562/suspension cell lines • PPIA: VIC-PL, ThermoFisher 4326316E (Assay: Hs99999904_ml)—used for A673/adherent cell lines
(§3) The A673 cell line was cultured in DMEM with 10% FBS. Cells were diluted with full growth media and plated in a 96-well plate (15,000 cells in 100 ul media per well). The plate was incubated at 37° C. with 5% CO2 for 24 hours to allow cells to adhere. An 11-point 3-fold serial dilution of the compounds was made in DMSO then diluted in media in an intermediate plate. Compounds were transferred from the intermediate plate to the cell plate with the top dose at a final concentration of 10 uM in the well. Final DMSO concentration was kept at or below 0.25%. The cell plate was returned to the incubator at 37° C. with 5% CO2 for an additional 24 hours.
(§4) The K562 cell line was cultured in IMDM with 10% FBS. For K562, cells were diluted with full growth media and plated in either a 96-well plate (50,000 cells in 50 uL media per well) or a 384-well plate (8,000-40,000 cells in 45 uL media per well). An 11-point 3-fold serial dilution of the compounds were made in DMSO then diluted in media in an intermediate plate. Compound was transferred from the intermediate plate to the cell plate with the top dose at a final concentration of 10 uM in the well. Final DMSO concentration was kept at or below 0.25%. Final volume was 100 uL for 96-well plate and 50 uL for 384-well plate. The cell plate was then placed in an incubator at 37° C. with 5% CO2 for 24 hours.
(§5) The cells were then gently washed with 50 uL-100 uL cold PBS before proceeding to addition of lysis buffer. 30 uL-50 uL of room temperature lysis buffer with DNAse I (and optionally RNAsin) was added to each well. Cells were shaken/mixed thoroughly at room temperature for 5-10 minutes for lysis to take place and then 3 uL-5 uL of room temperature stop solution was added and wells were shaken/mixed again. After 2-5 minutes, the cell lysate plate was transferred to ice for RT-qPCR reaction setup. The lysates could also be frozen at −80° C. for later use.
(§6) In some cases, a direct lysis buffer was used. An appropriate volume of 3× lysis buffer (10 mM Tris, 150 mM NaCl, 1.5%-2.5% Igepal and 0.1-1 U/uL RNAsin, pH 7.4) was directly added to either K562 or A673 cells in media and mixed by pipetting 3 times. The plates were then incubated at room temperature with shaking/rocking for 20-50 minutes to allow for lysis to take place. After this time, the cell lysate plate was transferred to ice to set up for the RT-qPCR reactions. The lysates could also be frozen at −80° C. for later use. […]
(In general: In qPCR the cycle at which signal appears reflects the starting amount.)

For experiment [2], the system named is HTT mRNA, canonical junction (CJ). Kind of experiment: Splicing assay (RT-qPCR): decrease in HTT canonical junction (CJ) mRNA. The following applies: A673 or K562 cell line, 24 hours treatment, top dose 10 uM; concentration having 50% response in CJ decrease. The method, then: as §1, §2, §3, §4, §5, §6
The next experiment has as its system HTT CJ mRNA. Kind of experiment: Gene panel canonical junction qPCR assay: decrease in HTT CJ mRNA. The conditions noted are these: protocol as for Table 2, read-out: HTT (IC50, decrease in CJ mRNA levels). The method, then:
as §1, §3, §4, §5
(§7) In some cases, a direct lysis buffer was used. An appropriate volume of 3× lysis buffer (10 mM Tris, 150 mM NaCl, 1.5%-2.5% Igepal and 0.1-1 U/uL RNAsin, pH 7.4) was directly added to either K562 or A673 cells in media and mixed by pipetting 3 times. The plates were then incubated at room temperature with shaking/rocking for 20-50 minutes to allow for lysis to take place. After this time, the cell lysate plate was transferred to ice to set up for the RT-qPCR reactions. The lysates could also be frozen at −80° C. for later use.
(§8) To set up 10 uL RT-qPCR reactions, cell lysates were transferred to 384-well qPCR plates containing the master mix according to the table below. The plates were sealed, gently vortexed, and spun down before the run. The volumes were adjusted accordingly in some instances where the reaction was carried in 20 uL. The table below summarizes the components of the RT-qPCR reactions:
(§9) The RT-qPCR reaction was performed using a QuantStudio (ThermoFisher) under the following fast cycling conditions. […]

A further experiment relates to SMN2 CJ mRNA. The experiment in a line: Gene panel canonical junction qPCR assay: decrease in SMN2 CJ mRNA. The following applies: protocol as for Table 2, read-out: SMN2 (IC50, decrease in CJ mRNA levels). The procedure: as §1, §3, §4, §5, §7, §8, §9
The next experiment relates to Target C CJ mRNA. Kind of experiment: Gene panel canonical junction qPCR assay: decrease in Target C CJ mRNA. The following applies: protocol as for Table 2, read-out: Target C (IC50, decrease in CJ mRNA levels). The method, then: as §1, §3, §4, §5, §7, §8, §9

Usually AC50 stands for the midpoint of the concentration-response curve, whichever way the signal moves. Lower therefore signals greater potency. As usually defined, the IC50 is the concentration that inhibits the measured activity by half. Take `Cc1cn2cc(NC(=O)c3ccc(N4CCNC(C)C4)c4ccnnc34)cc(F)c2n1` (stereo in doubt) [Compound 146, N-[8-fluoro-2-methylimidazo[1,2-a]pyridin-6-yl]-5-[(3S)-3-methylpiperazin-1-yl]cinnoline-8-carboxamide]: the AC50 in experiment [1] and in experiment [2] was 100 to 1000 nM each time. The results for the half-maximal inhibitory concentration (IC50) in the experiment on HTT CJ mRNA, with SMN2 CJ mRNA and in the experiment with Target C CJ mRNA were 100 to 1000 nM, less than 100 nM and more than 10000 nM, respectively.

Take `Cc1cn2cc(NC(=O)c3ccc(N4CCNC(C)C4)c4ccnnc34)cc(F)c2n1` (stereo in doubt) [Compound 147, N-[8-fluoro-2-methylimidazo[1,2-a]pyridin-6-yl]-5-[(3R)-3-methylpiperazin-1-yl]cinnoline-8-carboxamide]: the AC50 in experiment [1] and in experiment [2] was 1000 to 10000 nM throughout. In addition, the values for the IC50 in the experiment with HTT CJ mRNA, in the experiment with SMN2 CJ mRNA and with Target C CJ mRNA were 1000 to 10000 nM, less than 100 nM and 1000 to 10000 nM, respectively.

Turning to `Cc1cn2cc(NC(=O)c3ccc(N4CCN(C)C(C)C4)c4ccnnc34)cc(F)c2n1` (stereo in doubt) [Compound 149, 5-[(3S)-3,4-dimethylpiperazin-1-yl]-N-[8-fluoro-2-methylimidazo[1,2-a]pyridin-6-yl]cinnoline-8-carboxamide], the AC50 in experiment [1] and in experiment [2] was 1000 to 10000 nM each time. The IC50 in the experiment with HTT CJ mRNA is 1000 to 10000 nM; with SMN2 CJ mRNA, less than 100 nM; in the experiment with Target C CJ mRNA, 1000 to 10000 nM.

As for `Cc1cn2cc(NC(=O)c3ccc(N4CC(C)(C)NC(C)(C)C4)c4ccnnc34)cc(F)c2n1` [Compound 104, N-[8-fluoro-2-methylimidazo[1,2-a]pyridin-6-yl]-5-(3,3,5,5-tetramethylpiperazin-1-yl) cinnoline-8-carboxamide], the AC50 in experiment [1] and in experiment [2] was 1000 to 10000 nM each time.

With `Cc1cn2cc(NC(=O)c3ccc(N4CCNC5(CC5)C4)c4ccnnc34)cc(F)c2n1` [Compound 105, 5-[4,7-diazaspiro [2.5]octan-7-yl]-N-[8-fluoro-2-methylimidazo[1,2-a]pyridin-6-yl] cinnoline-8-carboxamide hydrochloride], the AC50 in experiment [1] and in experiment [2] was 1000 to 10000 nM in each case.

Regarding `Cc1cn2cc(NC(=O)c3ccc(N4CCNC(C)(C)C4)c4ccnnc34)cc(F)c2n1` [Compound 106, 5-(3,3-dimethylpiperazin-1-yl)-N-[8-fluoro-2-methylimidazo[1,2-a]pyridin-6-yl] cinnoline-8-carboxamide hydrochloride], the results for the AC50 in experiment [1] and in experiment [2] were 1000 to 10000 nM and 100 to 1000 nM, respectively.

For the compound `Cc1cn2cc(NC(=O)c3ccc(N4CCN5CCCC5C4)c4ccnnc34)cc(F)c2n1` (stereo not drawn) [Compound 107], the AC50 in experiment [1] was in the range of 100 to 1000 nM; in experiment [2] it was 1000 to 10000 nM.

For `Cc1cn2cc(NC(=O)c3ccc(N4CCC(NC(C)(C)C)C4)c4ccnnc34)cc(F)c2n1` (stereo not drawn) [Compound 109, 5-[3-(tert-butylamino)pyrrolidin-1-yl]-N-[8-fluoro-2-methylimidazo[1,2-a]pyridin-6-yl]cinnoline-8-carboxamide], the half-maximal activity concentration (AC50) in experiment [1] and in experiment [2] was 1000 to 10000 nM throughout. Also, the values for the IC50 with HTT CJ mRNA and with SMN2 CJ mRNA were 1000 to 10000 nM and 100 to 1000 nM, respectively.

For `Cc1cn2cc(NC(=O)c3ccc(N4CCNCC4)c4ncnnc34)cc(F)c2n1` [Compound 110, N-[8-fluoro-2-methylimidazo[1,2-a]pyridin-6-yl]-5-(piperazin-1-yl)-1,2,4-benzotriazine-8-carboxamide], the AC50 in experiment [1] and in experiment [2] was 1000 to 10000 nM in each case.

Take `COc1ccc2c(N3CCNCC3)ccc(-c3cc(F)c4nc(C)cn4c3)c2n1` [Compound 114, 8-[8-fluoro-2-methylimidazo[1,2-a]pyridin-6-yl]-2-methoxy-5-(piperazin-1-yl) quinoline]: the concentration at half-maximal activity (AC50) in experiment [1] and in experiment [2] was more than 10000 nM in each case. Further, the IC50 in the experiment with HTT CJ mRNA and in the experiment with SMN2 CJ mRNA was more than 10000 nM each time.

As for `Cc1cn2cc(NC(=O)c3ccc(N4CCN(C)C(C)C4)c4ccnnc34)cc(F)c2n1` (stereo not drawn) [Compound 129, 5-(3,4-dimethylpiperazin-1-yl)-N-[8-fluoro-2-methylimidazo [1,2-a]pyridin-6-yl]cinnoline-8-carboxamide], the AC50 in experiment [1] and in experiment [2] was 1000 to 10000 nM each time. Moreover, the IC50 in the experiment with HTT CJ mRNA is 1000 to 10000 nM; in the experiment with SMN2 CJ mRNA it was less than 100 nM.

Consider `CCC1CN(c2ccc(C(=O)Nc3cc(F)c4nc(C)cn4c3)c3nnccc23)CCN1` (stereo not drawn) [Compound 130, 5-(3-ethylpiperazin-1-yl)-N-[8-fluoro-2-methylimidazo[1,2-a]pyridin-6-yl] cinnoline-8-carboxamide hydrochloride], for which the AC50 in experiment [1] and in experiment [2] was 1000 to 10000 nM in each case. Also, the figures for the IC50 in the experiment with HTT CJ mRNA and in the experiment on SMN2 CJ mRNA were 1000 to 10000 nM and less than 100 nM, respectively.

As for `Cc1cn2cc(NC(=O)c3ccc(N(C)C4CC(C)(C)NC(C)(C)C4)c4ccnnc34)cc(F)c2n1` [Compound 135, N-[8-fluoro-2-methylimidazo[1,2-a]pyridin-6-yl]-5-[methyl(2,2,6,6-tetramethylpiperidin-4-yl)amino]cinnoline-8-carboxamide], the values for the AC50 in experiment [1] and in experiment [2] were 1000 to 10000 nM and 100 to 1000 nM, respectively.

Take `Cc1cn2cc(NC(=O)c3ccc(N(C)C4CCN(C)CC4)c4ccnnc34)cc(F)c2n1` [Compound 136, N-[8-fluoro-2-methylimidazo[1,2-a]pyridin-6-yl]-5-[methyl(1-methylpiperidin-4-yl)amino] cinnoline-8-carboxamide]: the AC50 in experiment [1] and in experiment [2] was 1000 to 10000 nM each time.

As for `CCNC1CCN(c2ccc(C(=O)Nc3cc(F)c4nc(C)cn4c3)c3nnccc23)CC1` [Compound 139, 5-[4-(ethylamino)piperidin-1-yl]-N-[8-fluoro-2-methylimidazo[1,2-a]pyridin-6-yl]cinnoline-8-carboxamide], the concentration at half-maximal activity (AC50) in experiment [1] and in experiment [2] was 1000 to 10000 nM throughout.

`Cc1cn2cc(-c3ccc(N4CCNCC4)c4ccc(O)nc34)cc(F)c2n1` [Compound 144, 8-[8-fluoro-2-methylimidazo[1,2-a]pyridin-6-yl]-5-(piperazin-1-yl)quinolin-2-ol]: the AC50 in experiment [1] and in experiment [2] was more than 10000 nM each time. For the same compound, the IC50 in the experiment on HTT CJ mRNA and in the experiment on SMN2 CJ mRNA was more than 10000 nM in each case.
